Experiment in all cases: NCI tumour cell line growth inhibition, 48 h
The test system of test [1] is PC-3 prostate.
Test [2] concerns HS 578T breast.
Test [3] concerns DLD-1 colon.
The test system of test [4] is DMS 114 small cell lung.
Test [5] relates to LXFL 529 NSCLC.
In test [6] the test system is KM20L2 colon.
In test [7] the test system is RXF-631 renal.
Test [8] relates to P388 leukemia.
For test [9], the system named is P388/ADR leukemia.
The subject of test [10] is SN12K1 renal.
Test [11] deals with HOP-18 NSCLC.
For test [12], the system named is 786-0 renal.

The values below come from PubChem BioAssay (NCI).

The structures appear in SMILES notation.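 Tested at 5 concentrations; 48 h exposure; 96-well plates; endpoints linearly interpolated, else capped at highest concentration. TGI marks complete inhibition of growth.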 Some results are limits rather than exact numbers.

In the case of `O=C1CCc2cc3c(cc21)CC1(Cc2cc4c(cc2C1)CCCC4)C3`, the TGI in test [1] was more than 100 µM; in [2] it was 90.2 µM.

`CCOC(=O)C1=NN(c2ccccc2)C2=CC(C)=NN(C)C(=S)N21`: the TGI in test [1] and in [2] was more than 100 µM throughout.

Regarding `CC(=O)c1cccc(NC(=O)C(=O)C(C(=O)c2ccccc2F)C2OC(=O)c3ccccc32)c1` (stereo not drawn), the TGI in [3] is more than 100 µM; in [4], 90 µM; in test [5], more than 100 µM; in test [6] it was more than 100 µM; in test [7], more than 100 µM.

Consider `CC[C@](C)(O)C(=O)O[C@H]1C(=O)O[C@@H]2C[C@H]3C(C)=C[C@H](O)[C@@H](O)[C@]3(C)[C@H]3[C@@]4(O)OC[C@]32[C@@H]1[C@@H](C)[C@H]4O`, for which the TGI turned out to be 63.6 µM in test [3]; 17.6 µM in test [4]; 189 µM in [6]; 128 µM in test [8]; 325 µM in [9]; 32.1 µM in [10]. This compound gave a TGI in test [11] of 298 µM.

On to `CCOC(=O)/C=C/c1c[nH]c(C(=O)OCC)c1`, for which the TGI in [3], in [4], in test [6], in [8], in [9] and in test [10] was more than 100 µM in each case. Also, the TGI in [11] was more than 100 µM.

As to `CN(C)CCCNc1ccc2nnn3c4ccc(OC(=O)c5ccc([N+](=O)[O-])cc5)cc4c(=O)c1c23`, the TGI in [1] was 17.5 µM; in [12], 16.6 µM; in test [2] it was 34.8 µM.

Consider `CC1CC(C)(O)CC(C(O)CC2CC(=O)NC(=O)C2)C1=O` (stereo not drawn), for which the TGI in test [1] turned out to be 5.63 µM; in test [12] it was 0.741 µM; in test [2], 0.316 µM.

As to `Nc1nc(Cl)cc(NCCCCCCCCCCCCNc2cc(Cl)nc(N)n2)n1`, the TGI in test [3] is more than 100 µM; in test [5] it was 53 µM; in test [6] it was more than 100 µM; in [11], more than 100 µM.
